# From ChEMBL document CHEMBL3797029, “Purinylpyridinylamino-based DFG-in/αC-helix-out B-Raf inhibitors: Applying mutant versus wild-type B-Raf selectivity indices for compound profiling” (Bioorg Med Chem, 2016)
# Assays:
# [1] = molecular target: Insulin-like growth factor 1 receptor (Homo sapiens) (UniProt P08069); assay: Inhibition of partial length wild type human IGF1R expressed in bacterial system assessed as enzyme activity at 1 uM relative to control; design: scale not given: the % may be the effect or the level left
# [2] = molecular target: Serine/threonine-protein kinase Nek4 (Homo sapiens) (UniProt P51957); assay: Inhibition of full length wild type human NEK4 expressed in mammalian system assessed as enzyme activity at 1 uM relative to control; design: scale not given: the % may be the effect or the level left
# [3] = molecular target: Receptor-type tyrosine-protein kinase FLT3 (Homo sapiens) (UniProt P36888); assay: Inhibition of partial length wild type human FLT3 expressed in bacterial system assessed as enzyme activity at 1 uM relative to control; design: scale not given: the % may be the effect or the level left
# [4] = molecular target: Dual specificity mitogen-activated protein kinase kinase 3 (Homo sapiens) (UniProt P46734); assay: Inhibition of full length wild type human MEK3 expressed in mammalian system assessed as enzyme activity at 1 uM relative to control; design: scale not given: the % may be the effect or the level left
# [5] = molecular target: Tyrosine-protein kinase Lck (Homo sapiens) (UniProt P06239); assay: Inhibition of partial length wild type human LCK expressed in bacterial system assessed as enzyme activity at 1 uM relative to control; design: scale not given: the % may be the effect or the level left
# [6] = molecular target: Dual specificity mitogen-activated protein kinase kinase 5 (Homo sapiens) (UniProt Q13163); assay: Inhibition of partial length wild type human MEK5 expressed in mammalian system assessed as enzyme activity at 1 uM relative to control; design: scale not given: the % may be the effect or the level left
# [7] = molecular target: Fibroblast growth factor receptor 1 (Homo sapiens) (UniProt P11362); assay: Inhibition of partial length wild type human FGFR1 expressed in bacterial system assessed as enzyme activity at 1 uM relative to control; design: scale not given: the % may be the effect or the level left
# [8] = molecular target: Rhodopsin kinase GRK1 (Homo sapiens) (UniProt Q15835); assay: Inhibition of full length wild type human GRK1 expressed in mammalian system assessed as enzyme activity at 1 uM relative to control; design: scale not given: the % may be the effect or the level left
# [9] = molecular target: Mitogen-activated protein kinase 1 (Homo sapiens) (UniProt P28482); assay: Inhibition of full length wild type human ERK2 expressed in bacterial system assessed as enzyme activity at 1 uM relative to control; design: scale not given: the % may be the effect or the level left
# [10] = molecular target: Serine/threonine-protein kinase 3 (Homo sapiens) (UniProt Q13188); assay: Inhibition of partial length wild type human MST2 expressed in bacterial system assessed as enzyme activity at 1 uM relative to control; design: scale not given: the % may be the effect or the level left
# [11] = molecular target: Cyclin-dependent kinase 4/cyclin D1 (Homo sapiens) (UniProt P11802+P24385); assay: Inhibition of full length wild type human CDK4-cyclinD1 expressed in mammalian system assessed as enzyme activity at 1 uM relative to control; design: scale not given: the % may be the effect or the level left
# [12] = molecular target: cGMP-dependent protein kinase 1 (Homo sapiens) (UniProt Q13976); assay: Inhibition of partial length wild type human PRKG1 expressed in bacterial system assessed as enzyme activity at 1 uM relative to control; design: scale not given: the % may be the effect or the level left
# [13] = molecular target: Epidermal growth factor receptor (Homo sapiens) (UniProt P00533); assay: Inhibition of partial length wild type human EGFR expressed in bacterial system assessed as enzyme activity at 1 uM relative to control; design: scale not given: the % may be the effect or the level left
# [14] = molecular target: Serine/threonine-protein kinase/endoribonuclease IRE1 (Homo sapiens) (UniProt O75460); assay: Inhibition of partial length wild type human ERN1 expressed in mammalian system assessed as enzyme activity at 1 uM relative to control; design: scale not given: the % may be the effect or the level left
# [15] = molecular target: Cyclin-dependent kinase 8 (Homo sapiens) (UniProt P49336); assay: Inhibition of partial length wild type human CDK8 expressed in bacterial system assessed as enzyme activity at 1 uM relative to control; design: scale not given: the % may be the effect or the level left
# [16] = molecular target: Phosphatidylinositol 4,5-bisphosphate 3-kinase catalytic subunit alpha isoform (Homo sapiens) (UniProt P42336); assay: Inhibition of partial length wild type human PIK3CA expressed in mammalian system assessed as enzyme activity at 1 uM relative to control; design: scale not given: the % may be the effect or the level left
# [17] = molecular target: Non-receptor tyrosine-protein kinase TYK2 (Homo sapiens) (UniProt P29597); assay: Inhibition of partial length wild type human TYK2 (catalytic JH1 domain) expressed in mammalian system assessed as enzyme activity at 1 uM relative to control; design: scale not given: the % may be the effect or the level left
# [18] = molecular target: Angiopoietin-1 receptor (Homo sapiens) (UniProt Q02763); assay: Inhibition of partial length wild type human TIE2 expressed in bacterial system assessed as enzyme activity at 1 uM relative to control; design: scale not given: the % may be the effect or the level left
# [19] = molecular target: Mitogen-activated protein kinase 12 (Homo sapiens) (UniProt P53778); assay: Inhibition of full length wild type human p38gamma expressed in bacterial system assessed as enzyme activity at 1 uM relative to control; design: scale not given: the % may be the effect or the level left
# [20] = molecular target: Ephrin type-A receptor 4 (Homo sapiens) (UniProt P54764); assay: Inhibition of partial length wild type human EPHA4 expressed in bacterial system assessed as enzyme activity at 1 uM relative to control; design: scale not given: the % may be the effect or the level left
# [21] = molecular target: Cyclin-dependent kinase 18 (Homo sapiens) (UniProt Q07002); assay: Inhibition of full length wild type human PCTK3 expressed in bacterial system assessed as enzyme activity at 1 uM relative to control; design: scale not given: the % may be the effect or the level left
# [22] = molecular target: High affinity nerve growth factor receptor (Homo sapiens) (UniProt P04629); assay: Inhibition of partial length wild type human TRKA expressed in mammalian system assessed as enzyme activity at 1 uM relative to control; design: scale not given: the % may be the effect or the level left
# [23] = molecular target: Epithelial discoidin domain-containing receptor 1 (Homo sapiens) (UniProt Q08345); assay: Inhibition of partial length wild type human DDR1 expressed in bacterial system assessed as enzyme activity at 1 uM relative to control; design: scale not given: the % may be the effect or the level left
# [24] = molecular target: Serine/threonine-protein kinase OSR1 (Homo sapiens) (UniProt O95747); assay: Inhibition of full length wild type human OSR1 expressed in mammalian system assessed as enzyme activity at 1 uM relative to control; design: scale not given: the % may be the effect or the level left
# [25] = molecular target: Serine/threonine-protein kinase PLK4 (Homo sapiens) (UniProt O00444); assay: Inhibition of partial length wild type human PLK4 expressed in mammalian system assessed as enzyme activity at 1 uM relative to control; design: scale not given: the % may be the effect or the level left
# [26] = molecular target: Serine/threonine-protein kinase 33 (Homo sapiens) (UniProt Q9BYT3); assay: Inhibition of full length wild type human STK33 expressed in bacterial system assessed as enzyme activity at 1 uM relative to control; design: scale not given: the % may be the effect or the level left
# [27] = molecular target: Casein kinase II subunit alpha (Homo sapiens) (UniProt P68400); assay: Inhibition of full length wild type human CSNK2A1 expressed in mammalian system assessed as enzyme activity at 1 uM relative to control; design: scale not given: the % may be the effect or the level left
# [28] = molecular target: Serine/threonine-protein kinase PAK 2 (Homo sapiens) (UniProt Q13177); assay: Inhibition of partial length wild type human PAK2 expressed in bacterial system assessed as enzyme activity at 1 uM relative to control; design: scale not given: the % may be the effect or the level left
# [29] = molecular target: Aurora kinase A (Homo sapiens) (UniProt O14965); assay: Inhibition of partial length wild type human AURKA expressed in mammalian system assessed as enzyme activity at 1 uM relative to control; design: scale not given: the % may be the effect or the level left
# [30] = molecular target: Dual specificity tyrosine-phosphorylation-regulated kinase 1A (Homo sapiens) (UniProt Q13627); assay: Inhibition of partial length wild type human DYRK1A expressed in mammalian system assessed as enzyme activity at 1 uM relative to control; design: scale not given: the % may be the effect or the level left
# [31] = molecular target: Serine/threonine-protein kinase B-raf (Homo sapiens, UniProt P15056); assay: Inhibition of wild type B-Raf (unknown origin) assessed as MEK1 phosphorylation using MEK1-Avitag as substrate after 1 hr by HTRF assay
# [32] = molecular target: Hepatocyte growth factor receptor (Homo sapiens) (UniProt P08581); assay: Inhibition of partial length wild type human MET expressed in bacterial system assessed as enzyme activity at 1 uM relative to control; design: scale not given: the % may be the effect or the level left
# Sequence of Ephrin type-A receptor 4 (Homo sapiens) (P54764 whole entry): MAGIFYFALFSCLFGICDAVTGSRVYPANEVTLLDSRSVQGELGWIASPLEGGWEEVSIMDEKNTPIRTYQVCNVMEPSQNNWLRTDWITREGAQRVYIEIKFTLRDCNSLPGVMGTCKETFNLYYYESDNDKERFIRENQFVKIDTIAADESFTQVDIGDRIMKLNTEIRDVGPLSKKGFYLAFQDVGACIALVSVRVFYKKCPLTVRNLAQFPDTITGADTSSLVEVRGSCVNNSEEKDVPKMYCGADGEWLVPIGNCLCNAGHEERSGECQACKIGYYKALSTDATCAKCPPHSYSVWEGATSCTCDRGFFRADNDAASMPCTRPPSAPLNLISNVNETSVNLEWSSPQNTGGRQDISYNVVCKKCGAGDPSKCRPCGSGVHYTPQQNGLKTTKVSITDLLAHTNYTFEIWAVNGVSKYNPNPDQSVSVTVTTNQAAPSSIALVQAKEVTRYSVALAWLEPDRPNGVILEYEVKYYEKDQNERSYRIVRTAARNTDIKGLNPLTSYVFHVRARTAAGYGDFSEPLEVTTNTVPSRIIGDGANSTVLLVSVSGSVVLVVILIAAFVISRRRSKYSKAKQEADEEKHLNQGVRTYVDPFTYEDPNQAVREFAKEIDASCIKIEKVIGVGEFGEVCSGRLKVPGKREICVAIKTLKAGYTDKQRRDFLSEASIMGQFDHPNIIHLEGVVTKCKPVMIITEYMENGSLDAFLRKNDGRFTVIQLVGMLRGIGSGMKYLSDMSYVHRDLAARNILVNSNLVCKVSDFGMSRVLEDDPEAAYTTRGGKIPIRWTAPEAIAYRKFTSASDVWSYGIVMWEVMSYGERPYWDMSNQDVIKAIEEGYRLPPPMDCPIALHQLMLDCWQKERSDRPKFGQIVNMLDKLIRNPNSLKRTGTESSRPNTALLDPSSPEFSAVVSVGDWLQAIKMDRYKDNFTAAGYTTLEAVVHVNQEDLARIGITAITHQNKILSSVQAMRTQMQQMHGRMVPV
# Sequence of Serine/threonine-protein kinase/endoribonuclease IRE1 (Homo sapiens) (O75460 19-977 limits assumed): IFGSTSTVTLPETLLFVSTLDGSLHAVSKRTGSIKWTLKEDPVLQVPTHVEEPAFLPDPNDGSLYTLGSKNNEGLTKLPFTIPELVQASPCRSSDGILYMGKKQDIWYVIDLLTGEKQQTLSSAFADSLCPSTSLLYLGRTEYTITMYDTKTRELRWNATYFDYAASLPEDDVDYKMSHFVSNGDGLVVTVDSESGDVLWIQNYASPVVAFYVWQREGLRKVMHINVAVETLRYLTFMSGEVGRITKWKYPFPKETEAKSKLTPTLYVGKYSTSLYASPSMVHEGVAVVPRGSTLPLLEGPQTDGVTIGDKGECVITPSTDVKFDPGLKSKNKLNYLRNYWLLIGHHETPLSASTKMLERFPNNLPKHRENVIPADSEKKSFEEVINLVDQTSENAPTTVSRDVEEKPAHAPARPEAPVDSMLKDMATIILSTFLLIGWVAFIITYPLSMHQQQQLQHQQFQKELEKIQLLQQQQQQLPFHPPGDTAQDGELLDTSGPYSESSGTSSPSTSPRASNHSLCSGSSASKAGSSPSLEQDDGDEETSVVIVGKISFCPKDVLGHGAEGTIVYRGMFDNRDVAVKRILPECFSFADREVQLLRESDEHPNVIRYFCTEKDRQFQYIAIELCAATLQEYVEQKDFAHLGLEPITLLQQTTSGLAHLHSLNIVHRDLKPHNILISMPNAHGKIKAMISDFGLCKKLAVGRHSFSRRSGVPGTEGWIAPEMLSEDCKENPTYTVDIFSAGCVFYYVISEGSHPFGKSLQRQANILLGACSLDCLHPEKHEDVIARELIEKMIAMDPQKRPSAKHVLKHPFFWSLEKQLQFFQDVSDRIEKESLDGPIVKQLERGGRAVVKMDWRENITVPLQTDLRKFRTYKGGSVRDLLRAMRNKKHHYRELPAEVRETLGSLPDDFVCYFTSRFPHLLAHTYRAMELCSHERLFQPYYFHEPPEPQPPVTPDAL
# Sequence of Epithelial discoidin domain-containing receptor 1 (Homo sapiens) (Q08345 whole entry, the tested form may be a part): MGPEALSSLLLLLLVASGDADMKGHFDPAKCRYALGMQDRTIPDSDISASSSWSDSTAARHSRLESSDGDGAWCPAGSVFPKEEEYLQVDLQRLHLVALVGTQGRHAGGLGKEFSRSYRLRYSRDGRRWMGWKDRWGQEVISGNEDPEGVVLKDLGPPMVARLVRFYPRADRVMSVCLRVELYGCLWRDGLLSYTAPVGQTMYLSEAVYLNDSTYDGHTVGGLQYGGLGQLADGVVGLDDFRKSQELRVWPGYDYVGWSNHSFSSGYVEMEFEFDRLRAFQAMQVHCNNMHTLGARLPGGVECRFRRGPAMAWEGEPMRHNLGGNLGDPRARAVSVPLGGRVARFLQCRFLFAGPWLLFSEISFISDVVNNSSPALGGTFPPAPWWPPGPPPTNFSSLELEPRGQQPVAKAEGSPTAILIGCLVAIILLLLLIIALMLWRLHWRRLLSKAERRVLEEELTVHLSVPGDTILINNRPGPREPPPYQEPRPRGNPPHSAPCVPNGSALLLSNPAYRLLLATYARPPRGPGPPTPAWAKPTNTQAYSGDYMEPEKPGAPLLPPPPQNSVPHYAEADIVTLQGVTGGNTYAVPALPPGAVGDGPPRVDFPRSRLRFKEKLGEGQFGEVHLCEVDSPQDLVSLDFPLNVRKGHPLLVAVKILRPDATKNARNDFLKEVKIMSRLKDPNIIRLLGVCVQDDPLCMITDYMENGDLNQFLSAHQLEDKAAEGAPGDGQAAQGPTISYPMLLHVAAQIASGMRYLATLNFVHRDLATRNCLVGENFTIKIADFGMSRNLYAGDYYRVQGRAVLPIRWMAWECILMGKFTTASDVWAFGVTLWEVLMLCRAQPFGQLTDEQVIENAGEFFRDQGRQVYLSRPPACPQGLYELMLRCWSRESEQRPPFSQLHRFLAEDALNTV
# Sequence of Fibroblast growth factor receptor 1 (Homo sapiens) (P11362 22-822 limits assumed): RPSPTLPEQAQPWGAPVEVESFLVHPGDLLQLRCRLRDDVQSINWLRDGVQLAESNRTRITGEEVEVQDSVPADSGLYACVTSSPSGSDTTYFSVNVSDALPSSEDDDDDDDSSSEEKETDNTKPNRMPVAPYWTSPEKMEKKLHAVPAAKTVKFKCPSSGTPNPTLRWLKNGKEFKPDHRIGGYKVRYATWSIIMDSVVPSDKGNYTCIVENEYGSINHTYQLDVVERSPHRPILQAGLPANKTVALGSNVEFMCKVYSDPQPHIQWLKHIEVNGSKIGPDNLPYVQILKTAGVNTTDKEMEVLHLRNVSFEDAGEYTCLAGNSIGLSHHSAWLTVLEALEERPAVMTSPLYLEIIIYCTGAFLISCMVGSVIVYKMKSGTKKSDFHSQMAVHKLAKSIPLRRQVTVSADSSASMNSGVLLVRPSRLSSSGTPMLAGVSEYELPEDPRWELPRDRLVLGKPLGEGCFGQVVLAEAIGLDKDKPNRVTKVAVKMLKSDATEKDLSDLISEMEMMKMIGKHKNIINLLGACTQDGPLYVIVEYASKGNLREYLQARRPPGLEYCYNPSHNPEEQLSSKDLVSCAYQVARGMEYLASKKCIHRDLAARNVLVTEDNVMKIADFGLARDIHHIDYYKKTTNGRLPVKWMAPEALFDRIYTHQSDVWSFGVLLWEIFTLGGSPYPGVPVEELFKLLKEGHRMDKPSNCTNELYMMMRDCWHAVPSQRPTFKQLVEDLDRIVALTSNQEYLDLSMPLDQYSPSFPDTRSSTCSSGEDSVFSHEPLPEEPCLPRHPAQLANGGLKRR
# Sequence of Serine/threonine-protein kinase 33 (Homo sapiens) (Q9BYT3 whole entry, looked up): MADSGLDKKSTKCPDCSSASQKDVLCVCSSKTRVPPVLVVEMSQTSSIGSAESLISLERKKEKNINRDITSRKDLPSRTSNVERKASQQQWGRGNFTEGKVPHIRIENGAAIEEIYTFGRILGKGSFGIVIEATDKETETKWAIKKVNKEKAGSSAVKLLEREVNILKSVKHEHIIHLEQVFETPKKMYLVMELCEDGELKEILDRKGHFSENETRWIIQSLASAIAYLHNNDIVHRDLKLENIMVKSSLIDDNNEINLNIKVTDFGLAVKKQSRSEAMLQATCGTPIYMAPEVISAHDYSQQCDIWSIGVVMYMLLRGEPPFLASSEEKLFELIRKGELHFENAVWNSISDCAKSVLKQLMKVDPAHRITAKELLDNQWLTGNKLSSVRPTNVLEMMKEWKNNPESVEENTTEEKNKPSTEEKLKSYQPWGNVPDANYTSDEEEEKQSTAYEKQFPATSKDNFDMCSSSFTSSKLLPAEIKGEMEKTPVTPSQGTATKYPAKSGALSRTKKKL
# Sequence of Casein kinase II subunit alpha (Homo sapiens) (P68400 whole entry, looked up): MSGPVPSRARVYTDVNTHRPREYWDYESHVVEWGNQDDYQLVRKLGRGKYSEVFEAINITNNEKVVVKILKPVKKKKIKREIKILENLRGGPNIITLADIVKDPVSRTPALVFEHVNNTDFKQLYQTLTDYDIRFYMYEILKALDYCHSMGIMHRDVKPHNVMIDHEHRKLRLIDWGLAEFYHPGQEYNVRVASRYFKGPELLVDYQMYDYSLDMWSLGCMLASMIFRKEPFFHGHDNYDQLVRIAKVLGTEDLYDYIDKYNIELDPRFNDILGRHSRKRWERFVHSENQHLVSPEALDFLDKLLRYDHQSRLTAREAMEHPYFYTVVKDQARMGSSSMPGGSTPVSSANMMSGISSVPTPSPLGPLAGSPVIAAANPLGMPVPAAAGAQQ
# Sequence of Tyrosine-protein kinase Lck (Homo sapiens) (P06239 2-509 limits assumed): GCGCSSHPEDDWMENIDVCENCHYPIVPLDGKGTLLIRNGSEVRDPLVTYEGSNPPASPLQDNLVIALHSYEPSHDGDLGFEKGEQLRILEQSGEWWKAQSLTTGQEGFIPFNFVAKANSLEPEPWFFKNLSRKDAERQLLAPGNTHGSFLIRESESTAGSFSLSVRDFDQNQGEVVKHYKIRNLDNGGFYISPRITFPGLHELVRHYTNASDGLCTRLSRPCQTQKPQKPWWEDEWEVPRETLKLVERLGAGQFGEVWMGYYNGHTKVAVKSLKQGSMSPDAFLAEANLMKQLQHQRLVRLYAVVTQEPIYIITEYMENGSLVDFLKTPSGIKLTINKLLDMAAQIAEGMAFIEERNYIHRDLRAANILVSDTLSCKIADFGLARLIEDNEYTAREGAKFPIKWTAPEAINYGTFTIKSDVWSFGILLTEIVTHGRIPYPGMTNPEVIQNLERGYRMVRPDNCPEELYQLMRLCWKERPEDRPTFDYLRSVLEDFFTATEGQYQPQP
compound,measurement,setting,value
CN(C)S(=O)(=O)Nc1ccc(F)c(Nc2ncccc2-c2ncnc3[nH]cnc23)c1F,Activity,[1],98%
same,Activity,[2],100%
same,Activity,[3],71%
same,Activity,[4],100%
same,Activity,[5],79%
same,Activity,[6],0.9%
same,Activity,[7],83%
same,Activity,[8],76%
same,Activity,[9],98%
same,Activity,[10],91%
same,Activity,[11],98%
same,Activity,[12],92%
same,Activity,[13],66%
same,Activity,[14],100%
same,Activity,[15],85%
same,Activity,[16],100%
same,Activity,[17],100%
same,Activity,[18],63%
same,Activity,[19],100%
same,Activity,[20],90%
same,Activity,[21],89%
same,Activity,[22],100%
same,Activity,[23],88%
same,Activity,[24],88%
same,Activity,[25],91%
same,Activity,[26],100%
same,Activity,[27],64%
same,Activity,[28],94%
same,Activity,[29],73%
same,Activity,[30],96%
same,IC50,[31],90 nM
same,Activity,[32],88%
